Experimental data reported in patent US9241489B2, “Plant growth regulating compounds” (Syngenta Participations AG, priority 2011, dated 2016).

melting point: 201 to 202 °C
Compound: N#Cc1cnc(NC(=O)CCC(=O)O)cn1 [Compound A1, 4-[(5-cyanopyrazin-2-yl)amino]-4-oxo-butanoic acid]
